Assay results from patent publication US20060069132A1, “Azolecarboxamide herbicides” (priority 2004, published 2006).

Tests used:
barnyardgrass = assay: Test A pre-/postemergence herbicide test; assay type: in vivo, Echinochloa crus-galli
Method in brief: (§1)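 Both application timings were run together: directed soil spray over freshly planted seeds in sandy loam, and runoff spray onto 2–10 cm seedlings. Evaluation after ~10 days in greenhouse used a 0–100 visual scale versus untreated controls.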

giant foxtail [1] = assay: Test A pre-/postemergence herbicide test; assay type: in vivo, Setaria faberi
Method in brief: as §1

redroot pigweed = assay: Test A pre-/postemergence herbicide test; assay type: in vivo, Amaranthus retroflexus
Method in brief: as §1

velvetleaf = assay: Test A pre-/postemergence herbicide test; assay type: in vivo, Abutilon theophrasti
Method in brief: as §1

Surinam grass = assay: Test C pre-/postemergence herbicide test; assay type: in vivo, Urochloa decumbens
Method in brief: (§2)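 Emerged plants at the 1- to 4-leaf stage (2–18 cm), or freshly planted seeds, received test chemicals in a non-phytotoxic solvent mixture with surfactant. Response was visually scored against controls after 12 to 14 days in the greenhouse, on a 0 (no effect) to 100 (complete control) scale.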

cocklebur = assay: Test C pre-/postemergence herbicide test; assay type: in vivo, Xanthium strumarium
Method in brief: as §2

giant foxtail [2] = assay: Test C pre-/postemergence herbicide test; assay type: in vivo, Setaria faberi
Method in brief: as §2

johnsongrass = assay: Test C pre-/postemergence herbicide test; assay type: in vivo, Sorghum halepense
Method in brief: as §2

morningglory = assay: Test C pre-/postemergence herbicide test; assay type: in vivo, Ipomoea coccinea; parameters: key to Plant response rating, Morningglory: 0 = no effect, 100 = complete control
Method in brief: as §2

eastern black nightshade = assay: Test C pre-/postemergence herbicide test; assay type: in vivo, Solanum ptycanthum; conditions: for Plant response rating, Nightshade / Plant response rating (0 = no effect, 100 = complete control), Nightshade: preemergence; for Plant response rating (0 = no effect, 100 = complete control), Nightshade: 62 g ai/ha
Method in brief: as §2

yellow nutsedge = assay: Test C pre-/postemergence herbicide test; assay type: in vivo, Cyperus esculentus
Method in brief: as §2

[3] = Postemergence, 500 g ai/ha, 0 to 100 scale, 0 no effect, 100 complete control
[4] = Postemergence, 2000 g ai/ha, 0 to 100 scale, 0 no effect, 100 complete control
[5] = Preemergence, 500 g ai/ha, visual rating, 0 to 100 scale (0 no effect, 100 complete control)
[6] = Preemergence, 2000 g ai/ha, 0 to 100 scale, 0 no effect, 100 complete control
[7] = 31 g ai/ha, preemergence, scale 0 to 100
[8] = 125 g ai/ha, scale 0 (no effect) to 100 (complete control), visual, 12 to 14 days, preemergence
[9] = 250 g ai/ha, scale 0 to 100 (0 no effect, 100 complete control), visual, 12 to 14 days, preemergence
[10] = Postemergence, 250 g ai/ha, scale 0 to 100, 0 no effect, 100 complete control
[11] = postemergence, 125 g ai/ha, scale 0 to 100
[12] = postemergence, 62 g ai/ha, scale 0 to 100
[13] = 125 g ai/ha, scale 0 (no effect) to 100 (complete control), visual, 12 to 14 days
[14] = Preemergence, 2000 g ai/ha, visual rating, 0 to 100 scale (0 no effect, 100 complete control)
[15] = preemergence, 500 g ai/ha, visual injury, 0 to 100 scale (0 no effect, 100 complete control)
[16] = Preemergence, 500 g ai/ha, scale 0 to 100, 0 no effect, 100 complete control

SMILES: CCn1nc(C(C)(C)C)cc1C(=O)Nc1ccc(F)c(C(=O)NCCF)c1 [Compound 60]
- Plant response rating, Barnyardgrass (barnyardgrass; [3]): 35
- Plant response rating, Barnyardgrass (barnyardgrass; [4]): 70
- Barnyardgrass plant response rating (barnyardgrass; [5]): 50
- Barnyardgrass plant response rating (barnyardgrass; [6]): 85
- Plant response rating, Foxtail, Giant (giant foxtail [1]; [3]): 30
- Plant response rating, Foxtail, Giant (giant foxtail [1]; [4]): 60
- Foxtail, Giant plant response rating (giant foxtail [1]; [5]): 55
- Foxtail, Giant plant response rating (giant foxtail [1]; [6]): 90
- Plant response rating, Pigweed (redroot pigweed; [3]): 40
- Plant response rating, Pigweed (redroot pigweed; [4]): 95
- Pigweed plant response rating (redroot pigweed; [5]): 95
- Pigweed plant response rating (redroot pigweed; [6]): 100
- Plant response rating, Velvetleaf (velvetleaf; [4]): 20
- Velvetleaf plant response rating (velvetleaf; [5]): 65
- Velvetleaf plant response rating (velvetleaf; [6]): 95
- Plant response rating, Surinam Grass (Surinam grass; [7]): 0
- Plant response rating (0 = no effect, 100 = complete control), Surinam Grass (Surinam grass; 62 g ai/ha, preemergence): 0
- Plant response rating, Surinam Grass (Surinam grass; [8]): 0
- Plant response rating, Surinam Grass (Surinam grass; [9]): 50
- Plant response rating, Surinam Grass (Surinam grass; [10]): 5
- Plant response rating, Surinam Grass (Surinam grass; [11]): 5
- Plant response rating, Surinam Grass (Surinam grass; [12]): 5
- Plant response rating, Cocklebur (cocklebur; [7]): 0
- Plant response rating (0 = no effect, 100 = complete control), Cocklebur (cocklebur; 62 g ai/ha, preemergence): 0
- Plant response rating, Cocklebur (cocklebur; [8]): 0
- Plant response rating, Cocklebur (cocklebur; [9]): 5
- Plant response rating, Cocklebur (cocklebur; [10]): 10
- Plant response rating, Cocklebur (cocklebur; [11]): 10
- Plant response rating, Cocklebur (cocklebur; postemergence, 31 g ai/ha, scale 0 to 100): 10
- Plant response rating, Cocklebur (cocklebur; [12]): 10
- Plant response rating, Foxtail, Giant (giant foxtail [2]; [7]): 0
- Plant response rating (0 = no effect, 100 = complete control), Foxtail, Giant (giant foxtail [2]; 62 g ai/ha, preemergence): 0
- Plant response rating, Foxtail, Giant (giant foxtail [2]; [8]): 15
- Plant response rating, Foxtail, Giant (giant foxtail [2]; [9]): 80
- Plant response rating, Foxtail, Giant (giant foxtail [2]; [10]): 5
- Plant response rating, Foxtail, Giant (giant foxtail [2]; [11]): 5
- Plant response rating, Foxtail, Giant (giant foxtail [2]; [12]): 0
- Plant response rating, Johnsongrass (johnsongrass; [7]): 5
- Plant response rating (0 = no effect, 100 = complete control), Johnsongrass (johnsongrass; 62 g ai/ha, preemergence): 10
- Plant response rating, Johnsongrass (johnsongrass; [8]): 50
- Plant response rating, Johnsongrass (johnsongrass; [9]): 60
- Plant response rating, Johnsongrass (johnsongrass; [10]): 0
- Plant response rating, Johnsongrass (johnsongrass; [11]): 0
- Plant response rating, Johnsongrass (johnsongrass; [12]): 0
- Plant response rating, Morningglory (morningglory; [7]): 0
- Plant response rating (0 = no effect, 100 = complete control), Morningglory (morningglory; 62 g ai/ha, preemergence): 0
- Plant response rating, Morningglory (morningglory; [8]): 5
- Plant response rating, Morningglory (morningglory; [9]): 10
- Plant response rating, Morningglory (morningglory; [10]): 10
- Plant response rating, Morningglory (morningglory; [11]): 10
- Plant response rating, Morningglory (morningglory; [12]): 10
- Plant response rating, Nightshade (eastern black nightshade; 31 g ai/ha, scale 0 to 100): 10
- Plant response rating (0 = no effect, 100 = complete control), Nightshade (eastern black nightshade): 30
- Plant response rating, Nightshade (eastern black nightshade; [13]): 90
- Plant response rating, Nightshade (eastern black nightshade; 250 g ai/ha, scale 0 to 100 (0 no effect, 100 complete control), visual, 12 to 14 days): 90
- Plant response rating, Nutsedge, Yellow (yellow nutsedge; [7]): 0
- Plant response rating (0 = no effect, 100 = complete control), Nutsedge, Yellow (yellow nutsedge; 62 g ai/ha, preemergence): 0
- Plant response rating, Nutsedge, Yellow (yellow nutsedge; [8]): 0
- Plant response rating, Nutsedge, Yellow (yellow nutsedge; [9]): 5
- Plant response rating, Nutsedge, Yellow (yellow nutsedge; [10]): 0
- Plant response rating, Nutsedge, Yellow (yellow nutsedge; [11]): 0
- Plant response rating, Nutsedge, Yellow (yellow nutsedge; [12]): 0

SMILES: CCN(CC)C(=O)c1cccc(NC(=O)c2cc(C(C)(C)C)nn2CC)n1 [Compound 145]
- Barnyardgrass plant response rating (barnyardgrass; [3]): 40
- Plant response rating, Barnyardgrass (barnyardgrass; [4]): 100
- Barnyardgrass plant response rating (barnyardgrass; [5]): 95
- Barnyardgrass plant response rating (barnyardgrass; [14]): 100
- Foxtail, Giant plant response rating (giant foxtail [1]; [3]): 40
- Plant response rating, Foxtail, Giant (giant foxtail [1]; [4]): 60
- Foxtail, Giant plant response rating (giant foxtail [1]; [5]): 85
- Foxtail, Giant plant response rating (giant foxtail [1]; [14]): 100
- Pigweed plant response rating (redroot pigweed; [3]): 90
- Plant response rating, Pigweed (redroot pigweed; [4]): 100
- Pigweed plant response rating (redroot pigweed; [14]): 100
- Pigweed plant response rating (redroot pigweed; [15]): 95
- Velvetleaf plant response rating (velvetleaf; [3]): 30
- Plant response rating, Velvetleaf (velvetleaf; [4]): 55
- Velvetleaf plant response rating (velvetleaf; [14]): 90
- Velvetleaf plant response rating (velvetleaf; [15]): 75
- Plant response rating (0 = no effect, 100 = complete control), Surinam Grass (Surinam grass; 62 g ai/ha, preemergence): 0
- Plant response rating, Surinam Grass (Surinam grass; [8]): 50
- Surinam Grass plant response rating (Surinam grass; [16]): 70
- Plant response rating (0 = no effect, 100 = complete control), Cocklebur (cocklebur; 62 g ai/ha, preemergence): 0
- Plant response rating, Cocklebur (cocklebur; [8]): 0
- Plant response rating, Cocklebur (cocklebur; [9]): 0
- Cocklebur plant response rating (cocklebur; [16]): 0
- Plant response rating (0 = no effect, 100 = complete control), Foxtail, Giant (giant foxtail [2]; 62 g ai/ha, preemergence): 0
- Plant response rating, Foxtail, Giant (giant foxtail [2]; [8]): 0
- Plant response rating, Foxtail, Giant (giant foxtail [2]; [9]): 50
- Foxtail, Giant plant response rating (giant foxtail [2]; [16]): 70
- Plant response rating (0 = no effect, 100 = complete control), Johnsongrass (johnsongrass; 62 g ai/ha, preemergence): 50
- Plant response rating, Johnsongrass (johnsongrass; [8]): 65
- Johnsongrass plant response rating (johnsongrass; [16]): 90
- Plant response rating (0 = no effect, 100 = complete control), Morningglory (morningglory; 62 g ai/ha, preemergence): 0
- Plant response rating, Morningglory (morningglory; [8]): 0
- Morningglory plant response rating (morningglory; [16]): 30
- Plant response rating (0 = no effect, 100 = complete control), Nightshade (eastern black nightshade): 60
- Plant response rating, Nightshade (eastern black nightshade; [13]): 70
- Nightshade plant response rating (eastern black nightshade; [16]): 90
- Plant response rating (0 = no effect, 100 = complete control), Nutsedge, Yellow (yellow nutsedge; 62 g ai/ha, preemergence): 0
- Plant response rating, Nutsedge, Yellow (yellow nutsedge; [8]): 0
- Nutsedge, Yellow plant response rating (yellow nutsedge; [16]): 0
